From patent US11598701B1, “Method and system for lysing a liquid sample with augmented oxidizing agents to create a solution with a reduced microbial concentration and precipitate formation” (BIS SCIENCE LLC, priority 2021, dated 2023)
Where “and” joins values, the source holds several entries; their conditions need not be identical. Equal entries are not always repeated.

Tested on: S. aureus ATCC 6538
Experiment: Antimicrobial suspension test of H2O2 with and without photon activation
Assay type: cell-based
Details: contact time 5 minutes; for Average CFU/ML: average of replicates; for CFU/ML: single replicate

SMILES: OO [1 ppm H2O2 no photon activation, H2O2]
- % reduction Compared to controls: No reduction
- LOG 10 Reduction compared to controls: No reduction
- Average CFU/ML: 4.05E+06 CFU/ML
- CFU/ML: 4.10E+06 CFU/ML
- CFU/ML (listed as l ppm H2O2 no photon activation): 4.10E+06 CFU/ML

SMILES: OO [.3% H2O2 no photon activation, H2O2]
- % reduction Compared to controls: No reduction
- LOG 10 Reduction compared to controls: No reduction
- Average CFU/ML: 4.05E+06 CFU/ML
- CFU/ML: 4.10E+06 CFU/ML and 4.00E+06 CFU/ML
